The nature of this test: Effective concentration for antagonistic activity by inhibition of T-tropic strain of HIV-1 through its specific binding to a chemokine receptor.

From BindingDB's records for doi:10.1016/s0960-894x(00)00664-8 (Kyoto University, 2001) come the findings set out here.

Where a SMILES comes first, the peptide text is derived from it. Bridges are numbered along the chain shown (N, C = ends). [ ]: non-standard residue; d: D form. Gly(2-naphthyl) = N[C@H](C(=O)O)c1ccc2ccccc2c1; Cit = NC(=O)NCCC[C@H](N)C(=O)O

Compound `NCCCC[C@@H]1NC(=O)[C@H](CCCN=C(N)N)NC(=O)[C@H](Cc2ccc(O)cc2)NC(=O)[C@@H](NC(=O)[C@@H](NC(=O)[C@H](CCCN=C(N)N)NC(=O)[C@@H](N)CCCN=C(N)N)c2ccc3ccccc3c2)CSSC[C@@H](C(=O)N[C@@H](CCCN=C(N)N)C(=O)O)NC(=O)[C@H](CCCNC(N)=O)NC(=O)[C@H](CCCN=C(N)N)NC(=O)[C@H](Cc2ccc(O)cc2)NC(=O)[C@@H]2CCCN2C(=O)[C@@H](CCCCN)NC1=O` [Compound T140] (H-RR[Gly(2-naphthyl)]CYRK[dK]PYR[Cit]CR-OH; disulfide 4-13) displayed an EC50 of 0.18 nM.
